Measurements taken from US11028079B2 (ConverGene LLC, priority 2015, dated 2021).

The compounds below were run against T1, BRD4 bromodomains (Homo sapiens, UniProt O60885) (assay: BROMOscan bromodomain competition binding assay (DiscoveRx)). Details: Kd from 11 compound concentrations ranging from 0 to 10 μM, read-out: BROMOscan Relative Activity.
T1 construct: fused on or other part: T7 phage capsid protein (phage-display fusion; the phage DNA is read out by qPCR)
Protocol: Bromodomain assays were conducted to measure interactions between certain compounds and bromodomains.
The assays were conducted according to BROMOscan protocol from Discover Rx. Briefly, BRD4 bromodomains expressed as a fusion capsid protein of T7 phage were bound to acetylated peptide ligand on a solid phase and competition bindings were performed. T7 phage strains displaying bromodomains were grown in parallel in 24-well blocks in an E. coli host derived from the BL21 strain. E. coli were grown to log-phase and infected with T7 phage from a frozen stock (multiplicity of infection=0.4) and incubated with shaking at 32° C. until lysis (90-150 minutes). The lysates were centrifuged (5,000×g) and filtered (0.2 μm) to remove cell debris. […] The liganded beads were blocked with excess biotin and washed with blocking buffer (SeaBlock (Pierce), 1% BSA, 0.05% Tween 20, 1 mM DTT) to remove unbound ligand and to reduce non-specific phage binding. […] Test compounds were prepared as 1000× stocks in 100% DMSO and subsequently diluted 1:10 in monoethylene glycol (MEG) to create stocks at 100× the screening concentration (resulting stock solution is 10% DMSO/90% MEG). The compounds were then diluted directly into the assays such that the final concentration of DMSO and MEG were 0.1% and 0.9%, respectively. All reactions were performed in polystyrene 96-well plates in a final volume of 0.135 ml. […] The bromodomain concentration in the eluates was measured by qPCR. Data was collected at 11 compound concentrations ranging from 0 to 10 μM. Kd values were then derived from a standard dose-response curve generated with Hill equation (Hill Slope was set to ˜1) and a non-linear least square fit with the Levenberg-Marquardt algorithm. Response=Background+Signal−Background/1+(Kd Hill Slope/Dose Hill Slope)

SMILES	Kd [nM]
Cc1cc(CNC(=O)c2nc(NCc3cccc(Cl)c3)c3cc(-c4c(C)noc4C)ccc3n2)ccn1 [Example 249, 4-((3-chlorobenzyl)amino)-6-(3,5-dimethylisoxazol-4-yl)-N-((2-methylpyridin-4-yl)methyl)quinazoline-2-carboxamide]	< 500
Cc1noc(C)c1-c1ccc2nc(-c3cnn(CC(C)(C)O)c3)nc(NCc3cncc(Cl)c3)c2c1 [Example 139, 1-(4-(4-(((5-chloropyridin-3-yl)methyl)amino)-6-(3,5-dimethylisoxazol-4-yl)quinazolin-2-yl)-1H-pyrazol-1-yl)-2-methylpropan-2-ol]	< 500
CC(=O)N1CC(n2cc(-c3nc(N4CCOC[C@@H]4c4ccccc4)c4cc(-c5c(C)noc5C)ccc4n3)cn2)C1 [Example 324, (S)-1-(3-(4-(6-(3,5-dimethylisoxazol-4-yl)-4-(3-phenylmorpholino)quinazolin-2-yl)-1H-pyrazol-1-yl)azetidin-1-yl)ethan-1-one]	< 500
Cc1noc(C)c1-c1ccc2nc(N3CCC4(CC3)CC(O)C4)nc(N3CCOC[C@@H]3c3ccccc3)c2c1 [Example 313, (S)-7-(6-(3,5-dimethylisoxazol-4-yl)-4-(3-phenylmorpholino)quinazolin-2-yl)-7-azaspiro 13.51 nonan-2-ol]	< 500
Cc1noc(C)c1-c1ccc2nc(C(=O)NCc3ccncc3Cl)nc(NCc3cccc(Cl)c3)c2c1 [Example 208, 4-((3-chlorobenzyl)amino)-N-((3-chloropyridin-4-yl)methyl)-6-(3,5-dimethylisoxazol-4-yl)quinazoline-2-carboxamide]	< 500
Cc1noc(C)c1-c1ccc2nc(C(=O)NCc3cncc(Cl)c3)nc(NCc3cccc(Cl)c3)c2c1 [Example 191, 4-((3-chlorobenzyl)amino)-N-((5-chloropyridin-3-yl)methyl)-6-(3,5-dimethylisoxazol-4-yl)quinazoline-2-carboxamide]	< 500
CC(=O)N1CCC(n2cc(-c3nc(N4CCOC[C@@H]4c4ccccc4)c4cc(-c5c(C)noc5C)ccc4n3)cn2)CC1 [Example 327, (S)-1-(4-(4-(6-(3,5-dimethylisoxazol-4-yl)-4-(3-phenylmorpholino)quinazolin-2-yl)-1H-pyrazol-1-yl)piperidin-1-yl)ethan-1-one]	< 500
Cc1noc(C)c1-c1ccc2nc(-c3ccc(CO)nc3)nc(N3CCOC[C@@H]3c3ccccc3)c2c1 [Example 321, (S)-(5-(6-(3,5-dimethylisoxazol-4-yl)-4-(3-phenylmorpholino)quinazolin-2-yl)pyridin-2-yl)methanol]	< 500
Cc1noc(C)c1-c1ccc2nc(C(=O)NCc3ccnc(Cl)c3)nc(NCc3cccc(Cl)c3)c2c1 [Example 202, 4-((3-chlorobenzyl)amino)-N-((2-chloropyridin-4-yl)methyl)-6-(3,5-dimethylisoxazol-4-yl)quinazoline-2-carboxamide]	< 500
Cc1noc(C)c1-c1ccc2nc(-c3cnn(CC(N)=O)c3)nc(NCc3cncc(Cl)c3)c2c1 [Example 142, 2-(4-(4-(((5-chloropyridin-3-yl)methyl)amino)-6-(3,5-dimethylisoxazol-4-yl)quinazolin-2-yl)-1H-pyrazol-1-yl)acetamide]	< 500
Cc1noc(C)c1-c1ccc2nc(C(=O)NCc3cc(Cl)ccn3)nc(NCc3cccc(Cl)c3)c2c1 [Example 188, 4-((3-chlorobenzyl)amino)-N-((4-chloropyridin-2-yl)methyl)-6-(3,5-dimethylisoxazol-4-yl)quinazoline-2-carboxamide]	< 500
Cc1noc(C)c1-c1ccc2nc(-c3c(C)noc3C)nc(NCc3cccs3)c2c1 [Example 69, 2,6-bis(3,5-dimethylisoxazol-4-yl)-N-(thiophen-2-ylmethyl)quinazolin-4-amine]	500 to 5000
Cc1noc(C)c1-c1ccc2nc(C(=O)NC3CS(=O)(=O)C3)nc(NCc3cccc(Cl)c3)c2c1 [Example 271, 4-((3-chlorobenzyl)amino)-6-(3,5-dimethylisoxazol-4-yl)-N-(1,1-dioxidothietan-3-yl)quinazoline-2-carboxamide]	< 500
Cc1noc(C)c1-c1ccc2nc(C(=O)Nc3ccc(Cl)nc3)nc(NCc3cccc(Cl)c3)c2c1 [Example 222, 4-((3-chlorobenzyl)amino)-N-(6-chloropyridin-3-yl)-6-(3,5-dimethylisoxazol-4-yl)quinazoline-2-carboxamide]	> 5000

Results, then the compound that gave them:

Kd [nM]	SMILES
< 500	COCCn1cc(-c2nc(NCc3cccc(Cl)c3)c3cc(-c4c(C)noc4C)ccc3n2)cn1 [Example 58, N-(3-chlorobenzyl)-6-(3,5-dimethylisoxazol-4-yl)-2-(1-(2-methoxyethyl)-1H-pyrazol-4-yl)quinazolin-4-amine]
500 to 5000	Cc1noc(C)c1-c1ccc2nc(N3CCN(CCN(C)C)CC3)nc(NCc3ccc(F)cc3)c2c1 [Example 99, 2-(4-(2-(dimethylamino)ethyl)piperazin-1-yl)-6-(3,5-dimethylisoxazol-4-yl)-N-(4-fluorobenzyl)quinazolin-4-amine]
< 500	Cc1noc(C)c1-c1ccc2nc(N3CCN(C(=O)C4CC4)CC3)nc(NCc3cccc(Cl)c3)c2c1 [Example 17, (4-(4-((3-chlorobenzyl)amino)-6-(3,5-dimethylisoxazol-4-yl)quinazolin-2-yl)piperazin-1-yl)(cyclopropyl)methanone]
500 to 5000	Cc1noc(C)c1-c1ccc2nc(N3CCCCC3CO)nc(NCc3cccc(Cl)c3)c2c1 (centres unmarked) [Example 25, (1-(4-((3-chlorobenzyl)amino)-6-(3,5-dimethylisoxazol-4-yl)quinazolin-2-yl)piperidin-2-yl)methanol]
< 500	CN(C)C(=O)CN1CCN(c2nc(NCc3cncc(Cl)c3)c3cc(-c4ccc(=O)n(C)c4)ccc3n2)CC1 [Example 129, 2-(4-(4-(((5-chloropyridin-3-yl)methyl)amino)-6-(1-methyl-6-oxo-1,6-dihydropyridin-3-yl)quinazolin-2-yl)piperazin-1-yl)-N,N-dimethylacetamide]
< 500	Cc1noc(C)c1-c1ccc2nc(N3CCN(CCN(C)C)CC3)nc(NC3(c4cccc(Cl)c4)CC3)c2c1 [Example 170, N-(1-(3-chlorophenyl)cyclopropyl)-2-(4-(2-(dimethylamino)ethyl)piperazin-1-yl)-6-(3,5-dimethylisoxazol-4-yl)quinazolin-4-amine]
> 5000	Cc1noc(C)c1-c1ccc2nc(C(=O)NCc3ccc(Cl)cc3)nc(NCc3cccc(Cl)c3)c2c1 [Example 168, N-(4-chlorobenzyl)-4-((3-chlorobenzyl)amino)-6-(3,5-dimethylisoxazol-4-yl)quinazoline-2-carboxamide]
< 500	Cc1noc(C)c1-c1ccc2nc(N3CCN(CCN(C)C)CC3)nc(N(C)Cc3cccc(Cl)c3)c2c1 [Example 85, N-(3-chlorobenzyl)-2-(4-(2-(dimethylamino)ethyl)piperazin-1-yl)-6-(3,5-dimethylisoxazol-4-yl)-N-methylquinazolin-4-amine]
< 500	Cc1noc(C)c1-c1ccc2nc(N3CCN(C(=O)c4cccnc4)CC3)nc(NCc3cccc(Cl)c3)c2c1 [Example 35, (4-(4-((3-chlorobenzyl)amino)-6-(3,5-dimethylisoxazol-4-yl)quinazolin-2-yl)piperazin-1-yl)(pyridin-3-yl)methanone]
< 500	Cc1noc(C)c1-c1ccc2nc(-c3cnn(CCC#N)c3)nc(NCc3cccc(Cl)c3)c2c1 [Example 57, 3-(4-(4-((3-chlorobenzyl)amino)-6-(3,5-dimethylisoxazol-4-yl)quinazolin-2-yl)-1H-pyrazol-1-yl)propanenitrile]
< 500	Cc1noc(C)c1-c1ccc2nc(-c3ccc(CO)nc3)nc(NCc3cccc(Cl)c3)c2c1 [Example 63, (5-(4-((3-chlorobenzyl)amino)-6-(3,5-dimethylisoxazol-4-yl)quinazolin-2-yl)pyridin-2-yl)methanol]
< 500	Cc1noc(C)c1-c1ccc2nc(N3CCCN(CCN(C)C)CC3)nc(NCc3cccc(Cl)c3)c2c1 [Example 32, N-(3-chlorobenzyl)-2-(4-(2-(dimethylamino)ethyl)-1,4-diazepan-1-yl)-6-(3,5-dimethylisoxazol-4-yl)quinazolin-4-amine]
< 500	Cc1noc(C)c1-c1ccc2nc(N3CCN(CCN(C)C)CC3)nc(N3CCCCC3c3ccccc3)c2c1 (centres unmarked) [Example 175, 2-(4-(6-(3,5-dimethylisoxazol-4-yl)-4-(2-phenylpiperidin-1-yl)quinazolin-2-yl)piperazin-1-yl)-N,N-dimethylethanamine]
< 500	Cc1noc(C)c1-c1ccc2nc(-c3cnn(CC(=O)N(C)C)c3)nc(NCc3cccc(Cl)c3)c2c1 [Example 98, 2-(4-(4-((3-chlorobenzyl)amino)-6-(3,5-dimethylisoxazol-4-yl)quinazolin-2-yl)-1H-pyrazol-1-yl)-N,N-dimethylacetamide]
< 500	CN(C)CCN1CCN(c2nc(NCc3cncc(Cl)c3)c3cc(-c4ccc(=O)n(C)c4)ccc3n2)CC1 [Example 124, 5-(4-(((5-chloropyridin-3-yl)methyl)amino)-2-(4-(2-(dimethylamino)ethyl)piperazin-1-yl)quinazolin-6-yl)-1-methylpyridin-2(1H)-one]
